Molecular target: TRAF2 and NCK-interacting protein kinase (Homo sapiens, UniProt Q9UKE5)
Test: Kinase Assay: The kinase assays were conducted in a 20 μl volume using 384-well plates (Greiner). The reaction mixture consists of compound or vehicle (1% DMSO), 0.08 ng/μl TNIK_N, 1 μM FITC-labeled substrate peptides, including ε-aminocaproic acid and 7 amino acids (described as SEQ ID NO. 3 in "Kinase assay of TEST EXAMPLE 1" of WO 2010/064111(P.31)), 20 mM Hepes, pH 7.5, 0.01% Triton X-100, 5 mM MgCl2, 25 μM ATP and 2 mM DTT. As blank, TNIK_N was excluded from the reaction mixture of vehicle (1% DMSO). The kinase reaction was carried out 1 h at room temperature and terminated by addition of 60 μl of the termination buffer (127 mM Hepes, pH 7.5, 26.7 mM EDTA, 0.01% Triton X-100, 1% DMSO and 0.13% Coating Reagent 3 (Caliper Life Sciences)). The amount of unphosphorylated and phosphorylated FITC-labeled substrate peptides was detected by Mobility Shift Micro Fluidic Technology (Caliper LC3000 System, Caliper Life Sciences).

TRAF2 and NCK-interacting protein kinase, sequence (Q9UKE5 whole entry): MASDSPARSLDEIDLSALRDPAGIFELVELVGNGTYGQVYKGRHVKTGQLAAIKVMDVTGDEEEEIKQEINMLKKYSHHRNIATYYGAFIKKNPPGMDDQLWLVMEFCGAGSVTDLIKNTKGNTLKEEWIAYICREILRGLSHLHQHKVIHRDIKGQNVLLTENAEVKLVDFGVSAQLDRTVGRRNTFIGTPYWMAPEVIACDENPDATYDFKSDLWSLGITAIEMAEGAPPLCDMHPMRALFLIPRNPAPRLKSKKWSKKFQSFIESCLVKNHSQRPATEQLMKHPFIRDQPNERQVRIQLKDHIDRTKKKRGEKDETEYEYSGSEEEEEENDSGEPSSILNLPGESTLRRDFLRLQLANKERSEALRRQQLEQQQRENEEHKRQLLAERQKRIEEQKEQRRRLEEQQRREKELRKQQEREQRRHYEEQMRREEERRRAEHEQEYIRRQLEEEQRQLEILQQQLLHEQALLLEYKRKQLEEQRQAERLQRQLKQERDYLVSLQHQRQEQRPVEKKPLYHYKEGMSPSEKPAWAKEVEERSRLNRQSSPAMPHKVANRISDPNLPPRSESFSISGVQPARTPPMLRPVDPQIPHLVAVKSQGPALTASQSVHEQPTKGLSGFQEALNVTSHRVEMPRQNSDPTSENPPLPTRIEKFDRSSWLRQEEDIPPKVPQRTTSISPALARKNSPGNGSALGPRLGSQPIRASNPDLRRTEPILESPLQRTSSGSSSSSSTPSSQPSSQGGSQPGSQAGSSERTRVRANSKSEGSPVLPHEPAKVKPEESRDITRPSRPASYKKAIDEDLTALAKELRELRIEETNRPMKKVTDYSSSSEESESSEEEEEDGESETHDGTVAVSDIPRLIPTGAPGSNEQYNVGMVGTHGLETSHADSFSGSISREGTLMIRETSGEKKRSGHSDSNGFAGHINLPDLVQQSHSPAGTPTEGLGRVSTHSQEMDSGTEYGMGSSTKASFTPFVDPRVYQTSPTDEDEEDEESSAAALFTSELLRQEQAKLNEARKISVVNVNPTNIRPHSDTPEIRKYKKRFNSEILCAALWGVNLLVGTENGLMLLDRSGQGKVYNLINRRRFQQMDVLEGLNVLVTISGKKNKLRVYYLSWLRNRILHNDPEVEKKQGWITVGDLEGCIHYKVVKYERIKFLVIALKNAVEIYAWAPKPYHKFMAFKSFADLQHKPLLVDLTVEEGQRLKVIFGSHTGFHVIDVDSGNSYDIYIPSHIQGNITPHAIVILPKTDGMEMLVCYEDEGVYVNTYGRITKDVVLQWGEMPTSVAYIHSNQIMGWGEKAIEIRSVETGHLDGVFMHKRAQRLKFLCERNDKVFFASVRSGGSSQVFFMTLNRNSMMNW

Row | IC50 [nM] | SMILES
1 | 22.5 | NC(=O)c1nc(Nc2ccc3cc(F)ccc3c2)sc1NC(=O)c1ccc(NCCO)cc1
2 | 4.4 | CC#CC(=O)Nc1sc(Nc2ccc3ccccc3c2)nc1C(N)=O
3 | 9.5 | NC(=O)c1nc(Nc2ccc3ccccc3c2)sc1NC(=O)c1ccc(Cn2ccnc2[N+](=O)[O-])cc1
